Here are results for nine compounds from ChEMBL document CHEMBL5614384, “Synthesis and antiproliferative activity of (-)-cleistenolide, (6S)-cleistenolide and 4-substituted cleistenolide analogues” (Bioorg Med Chem, 2024).

In general, IC50 refers to the concentration that gives 50% inhibition.

Series [1] has as its system Raji. Put plainly: Antiproliferative activity against human Raji cells assessed as inhibition of cell growth incubated for 72 hrs by MTT assay. Type of series: functional, cell-based.
Series [2] has as its system K562. Nature of the series: Antiproliferative activity against human K562 cells assessed as inhibition of cell growth incubated for 72 hrs by MTT assay. Particulars: K562, 72 h. The series is classed as functional, cell-based. For orientation: Tetrazolium assays rely on reduction of a dye to a coloured formazan, in cell work by metabolically active cells.
The test system of series [3] is A549. Put plainly: Antiproliferative activity against human A549 cells assessed as inhibition of cell growth incubated for 72 hrs by MTT assay. Type of series: functional, cell-based. To be noted: A549, 72 h.
Series [4] relates to MCF7. Put plainly: Antiproliferative activity against estrogen receptor positive human MCF7 cells assessed as inhibition of cell growth incubated for 72 hrs by MTT assay. The series is classed as functional, cell-based. Particulars: MCF7, 72 h.
The nature of series [5]: Cytotoxicity against human MRC5 cells assessed as inhibition of cell growth incubated for 72 hrs by MTT assay. Type of series: toxicity, cell-based. Particulars: human, MRC5 cells.
Series [6] deals with MDA-MB-231. Nature of the series: Antiproliferative activity against estrogen receptor negative human MDA-MB-231 cells assessed as inhibition of cell growth incubated for 72 hrs by MTT assay. Type of series: functional, cell-based. To be noted: MDA-MB-231, 72 h.
The test system of series [7] is HeLa. Nature of the series: Antiproliferative activity against human HeLa cells assessed as inhibition of cell growth incubated for 72 hrs by MTT assay. The series is classed as functional, cell-based.
The test system of series [8] is HL-60. Nature of the series: Antiproliferative activity against human HL-60 cells assessed as inhibition of cell growth incubated for 72 hrs by MTT assay. Type of series: functional, cell-based. Particulars: HL-60, 72 h.
Series [9] has as its system Jurkat. Put plainly: Antiproliferative activity against human Jurkat cells assessed as inhibition of cell growth incubated for 72 hrs by MTT assay. The series is classed as functional, cell-based.

As for `CC(=O)O[C@H](COC(=O)c1ccccc1)[C@H]1OC(=O)C=C[C@H]1OC(=O)/C=C/c1ccc(F)cc1`, the IC50 in series [1] turned out to be 26.4 µM; in [2] it was 6.75 µM; in series [3], 87.6 µM; in [4], 5.28 µM; in [6] it was 17.7 µM; in series [7], 17.9 µM. Besides, the IC50 in [8] is 16.1 µM; in series [9] it was 28.6 µM. Besides, in series [5], the half-inhibitory concentration (IC50) at 72 h is more than 100 µM.
Take `CC1(C)O[C@H]2O[C@@H]3C=CC(=O)O[C@@H]3[C@H]2O1`: the IC50 is 29.4 µM in series [1]; 3.4 µM in [2]; 16.5 µM in series [3]; 8.26 µM in series [4]; 24.4 µM in series [6]; 6.09 µM in series [7]. In addition, the IC50 in series [8] turned out to be 22.3 µM; in series [9], 27.2 µM. Moreover, the concentration for half-maximal inhibition (IC50) at 72 h in series [5] was more than 100 µM.
Regarding `COc1ccc(/C=C/C(=O)O[C@@H]2C=CC(=O)O[C@@H]2[C@@H](COC(=O)c2ccccc2)OC(C)=O)cc1OC`, the IC50 in series [1] came to 26.4 µM; in series [2], 4.52 µM; in series [3], 13.6 µM; in [4] it was 6.35 µM; in series [6], 15.9 µM; in series [7], 8.73 µM. Besides, the IC50 in series [8] is 5.75 µM; in series [9], 22.6 µM. For the same compound, in [5], the IC50 at 72 h was more than 100 µM.
For `CC(=O)O[C@@H](COC(=O)c1ccccc1)[C@H]1OC(=O)C=C[C@H]1OC(C)=O`, the IC50 in series [1] was 13.1 µM; in [2], 5.58 µM; in series [3] it was 16.2 µM; in [4], 15.1 µM; in series [6], 23.7 µM; in series [7] it was 6.79 µM. Moreover, the half-inhibitory concentration (IC50) in series [8] was 9.84 µM; in series [9] it was 15.5 µM. Further, the IC50 at 72 h in [5] worked out at 98.2 µM.
Take `CC(=O)OC[C@@H](OC(C)=O)[C@H]1OC(=O)C=C[C@H]1OC(=O)c1ccccc1`: the IC50 in series [1] was 10.7 µM; in series [2], 2.65 µM; in [3], 22.9 µM; in series [4] it was 5.01 µM; in series [6], 15.9 µM; in series [7], 10.8 µM. Further, the IC50 in series [8] stood at 4.39 µM; in series [9] it was 18.3 µM. In addition, in series [5], the half-maximal inhibitory concentration (IC50) at 72 h is more than 100 µM.
With `CC(=O)O[C@H](COC(=O)c1ccccc1)[C@H]1OC(=O)C=C[C@H]1OS(=O)(=O)c1ccc(C)cc1`, the half-maximal inhibitory concentration (IC50) was 18.9 µM in [1]; 4.5 µM in series [2]; 12.4 µM in series [3]; 11.3 µM in [4]; 14.8 µM in [6]; 15.8 µM in series [7]. The half-inhibitory concentration (IC50) in series [8] came to 20.9 µM; in series [9], 26.6 µM. Also, the 50% inhibitory concentration (IC50) at 72 h in series [5] was more than 100 µM.
For the compound `CC(=O)O[C@H](COC(=O)c1ccccc1)[C@H]1OC(=O)C=C[C@H]1OC(=O)c1c(Cl)cc(Cl)cc1Cl`, the IC50 in [1] came out at 23.6 µM; in series [2], 11.9 µM; in [3], 5.02 µM; in [4] it was 28.4 µM; in series [6], 23.4 µM; in [7] it was 8.71 µM. For the same compound, the results for the IC50 in series [8] and in [9] were 22.9 µM and 9.4 µM, respectively. For the same compound, in [5], the IC50 at 72 h is more than 100 µM.
`CC(=O)O[C@H](COC(=O)c1ccccc1)[C@H]1OC(=O)C=C[C@H]1O[Si](C)(C)C(C)(C)C`: the IC50 in series [1] is 18.8 µM; in [2] it was 6.72 µM; in series [3], 12.1 µM; in [4] it was 4.14 µM; in series [6], 35.4 µM; in [7], 9.96 µM. Besides, the 50% inhibitory concentration (IC50) is 11.6 µM in [8] and 16.7 µM in [9]. The 50% inhibitory concentration (IC50) at 72 h in series [5] is more than 100 µM.
Regarding `CC(=O)O[C@@H]1C=CC(=O)O[C@@H]1[C@@H](COC(=O)c1ccccc1)OC(C)=O`, the IC50 at 72 h in [5] was more than 100 µM.
